Several values for one entry are separate records, joined by “and”; a condition that tells them apart may be missing. Identical values can stand only once.
Tests used:
LNCaP tumors [1] = test: Second in vivo study: TPA, ATRA or both i.p. in NCr mice with LNCaP tumors, 21 or 46 days; details: for percent of initial tumor size: TPA 0.16 nmol/g; for % of Mice with Tumor Growth / % of Mice with Tumor Regression: i.p.
Description: Tumor cell growth was measured and expressed as percent of initial size (FIG. 3). […] In this table, mice in Group A (13 mice/group) were treated for 21 days, while mice in Group B (6 mice/group) were a subset of the original group and were treated for an additional 25 days.
The effect of the 21 day treatments on body weight was examined in order to determine if there was the same level of toxicity seen in the first animal study.
The results from the Group B animals were analyzed separately.
Male Ncr immunodeficient mice (6 to 7 weeks old) were obtained from Taco Farms (Germantown, N.Y.). The animals were housed in sterile filter-capped microisolator cages and provided with sterilized food and water. Prostate cancer cells (2×10^6 cells/0.1 ml/mouse) suspended in 50% matrigel (Collaborative Research, Bedford, Mass.) in RPMI 1640 medium were injected subcutaneously into the right flank of the mice. After 4 to 6 weeks, mice with well-established tumors (0.65 to 1 cm by 0.65 to 1 cm) were used for the various experiments. In all experiments, animals received the same volume of injections (5 μl/g body weight). Tumor size and body weight were measured daily. At the end of a study, mice were sacrificed by decapitation, tumors were excised, weighed, and placed in phosphate-buffered formalin for 48 hr at room temperature and then placed in ethanol for 48 hr before preparing paraffin sections.

LNCaP cells [2] = test: Flow cytometry (propidium iodide): cell cycle distribution and apoptosis in cultured LNCaP cells; assay type: cell-based, human; details: for apoptotic cells (percent of pre-G0/G1 cells): single drug, TPA 0.16 or 0.32 nM
Description: LNCaP cells were obtained from the American Type Culture Collection (Rockville, Md., USA). TPA was obtained from Alexis Co. (San Diego, Calif.). […] LNCaP cells were maintained in RPMI-1640 culture medium containing 10% fetal bovine serum that was supplemented with penicillin (100 units/ml), streptomycin (100 μg/ml) and L-glutamine (300 μg/ml) as described (Zheng, X. et al. 2000. Oncol. Res. 12:419=427). Cultured cells were grown at 37° C. in a humidified atmosphere of 5% CO2 and were passed twice a week. In all experiments, LNCaP cells were initially seeded at a density of 1×10^5 cells/ml in a final volume of 2 or 5 ml in 35 or 60 mm tissue culture dishes, respectively.
To perform the analysis, 1×10^6 cells were washed with phosphate-buffered saline (PBS) and resuspended in 500 μl of stain solution (20 mg/ml polyethylene glycol 8000, 50 μg/ml propidium iodide, 0.1% Triton-X-100, and 0.4 M sodium chloride). The mixture was incubated at 4° C. overnight in the dark before being analyzed on a Coulter Epics-Profile II flow cytometer. Propidium iodide is a fluorescent dye that intercalates into the DNA double helix. Whether cells are in the G1 phase where they have two copies of their genome or in the G2/M phase where they have 4 copies of their genome, or in the S phase where their DNA is between the two states, can be determined by the amount of propidium iodide that intercalates into the DNA. Pre G0/G1 cells were considered apoptotic cells. The proportion of cells in each phase of the cell cycle was calculated using the cytologic software provided.

LNCaP tumors [3] = test: Mitotic cells and caspase 3 (active form) immunostaining in LNCaP tumors from treated mice; assay type: in vivo, male NCr mice; details: mice treated for 46 days
Description: (§1) Tumor size and body weight were measured daily.
Tumor sections used were stained by the horseradish peroxidase-conjugated-avidin method. Endogenous peroxidase was blocked by incubating the tissue sections in 3% hydrogen peroxide in methanol for 30 minutes at room temperature. Sections were then treated with 0.01 M sodium citrate buffer (pH 6.0) in a microwave oven at high temperature for 10 minutes. The sections were incubated with a protein block (normal goat serum) for 10 minutes, followed by avidin D for 15 minutes and biotin blocking solution for 15 minutes at room temperature. The sections were incubated with caspase 3 primary antibody (1:2000 dilution) for 30 minutes at room temperature followed by incubation with a biotinylated anti-rabbit secondary antibody for 30 minutes and incubation with conjugated-avidin solution for 30 minutes. Color development was achieved by incubation with 0.02% 3,3′-diaminobenzidine tetrahydrochloride containing 0.02% hydrogen peroxide for 10 minutes at room temperature. The slides were then counterstained with hematoxylin, dehydrated and coverslips were added for permanent mounting. A positive reaction was shown as a light brown to dark brown precipitate in the cytoplasm and/or perinuclei of the cells.

[4] = Blood levels of TPA after i.p. injection in NCr mice (HL-60 differentiation bioassay); assay type: in vivo, male NCr mice
Description: Immunodeficient male NCr mice were used as they are a well-established mouse model for examination of human tumor cell growth. […] TPA was administered in a vehicle that consisted of propylene glycol, polysorbate 80, benzyl alcohol, ethanol, and water (40:0.5:1:10:48.5). Peak blood levels of TPA were in the range of 3 ng/ml (4.8 nM) after a 200 ng/g injection and 1 ng/ml (1.7 nM) after a 100 ng/g injection.
The concentration of TPA in blood after an i.p. injection of TPA was measured by a bioassay that quantifies ethyl acetate-extractable differentiating activity in blood (Cui, X. X. et al. 2002. Oncol. Res. 13:169-174). Differentiating activity was measured in HL-60 cells. […] Although blood levels of bioactive material are expressed as ng of TPA/ml blood, the assay could include biologically active metabolites.

LNCaP tumors [5] = test: First in vivo study: TPA i.p. in NCr mice with LNCaP tumors, 13 days; parameters: species or system male NCr mice
Description: With the feasibility of the use of TPA by i.p. injection now established, male NCr mice were injected subcutaneously with LNCaP cells in matragel. […] On day 3, the dose of TPA was increased (0.32 nmol/g; 5 μl vehicle/g body weight) and this dose level was administered i.p. for 11 days. The length and width of each tumor was measured at the start of the study and during treatment with TPA. Tumor size was expressed as cm^2 (length×width). There was a statistically significant inhibition of tumor cell growth in the TPA treated animals. The average tumor size in the vehicle-treated control group increased to about 200% of the initial tumor size while the average tumor size after 13 days of treatment with TPA was about 95% of the initial tumor size.
as §1

[6] = doses of TPA in the range of 0.25 to 1 mg; cited from earlier work
LNCaP cells [7] = test: Number of viable LNCaP cells (trypan blue exclusion); assay type: cell-based, human; details: for effect on LNCaP cell growth (FIG. 2): TPA alone 0.32 nM, ATRA alone 0.5 to 10 μM, or 0.32 nM TPA with increasing ATRA
Description: LNCaP cells were seeded in culture dishes and incubated for 24 hours to allow the cells to attach to the culture dishes. The cells were then treated with ethanol (2 μl/ml) or TPA in ethanol (0.2 to 10 ng/ml) for 96 hours.
The number of viable and dead cells was determined by trypan blue exclusion. […] The concentration of TPA that caused a 50% inhibition of LNCaP cell growth was 3 nM (IC50). The IC50 for TPA varied between 1 and 3 nM in different experiments.
LNCaP cells were obtained from the American Type Culture Collection (Rockville, Md., USA). TPA was obtained from Alexis Co. (San Diego, Calif.). ATRA was obtained from Sigma Chemical Co. (St. Louis, Mo.). LNCaP cells were maintained in RPMI-1640 culture medium containing 10% fetal bovine serum that was supplemented with penicillin (100 units/ml), streptomycin (100 μg/ml) and L-glutamine (300 μg/ml) as described (Zheng, X. et al. 2000. Oncol. Res. 12:419=427). Cultured cells were grown at 37° C. in a humidified atmosphere of 5% CO2 and were passed twice a week. In all experiments, LNCaP cells were initially seeded at a density of 1×10^5 cells/ml in a final volume of 2 or 5 ml in 35 or 60 mm tissue culture dishes, respectively.
To quantify the number of viable cells after each treatment, cells were counted using a hemacytometer under a light microscope. Cell viability was determined by the trypan blue exclusion assay, which was done by mixing 80 μl of cell suspension and 20 μl of 0.4% trypan blue solution for 2 minutes.

[8] = entire 46 day treatment interval (Group B), ATRA 0.5 nmol/g
[9] = TPA 0.32 nM, ATRA 1 μM, 96 hours
[10] = Treatment for 48 Hours, TPA 1 ng/ml, Taxol 5 ng/ml
[11] = Treatment for 96 Hours, TPA 1 ng/ml, Taxol 5 ng/ml

SMILES	% of Mice with Tumor Growth (LNCaP tumors [1]; Group A, 21 days)	% of Mice with Tumor Regression (LNCaP tumors [1]; Group A, 21 days)	% of Mice with Tumor Growth (LNCaP tumors [1]; Group B, 46 days)	% of Mice with Tumor Regression (LNCaP tumors [1]; Group B, 46 days)	percent of initial tumor size (LNCaP tumors [1]; [8])	% Apoptotic Cells (LNCaP cells [2]; [9])	% Cells in G0/G1 (LNCaP cells [2]; [9])	% Cells in G2/M (LNCaP cells [2]; [9])	% Cells in S (LNCaP cells [2]; [9])	% Apoptotic Cells (LNCaP cells [2]; [10])	% Cells in G0/G1 (LNCaP cells [2]; [10])	% Cells in G2/M (LNCaP cells [2]; [10])	% Cells in S (LNCaP cells [2]; [10])	% Apoptotic Cells (LNCaP cells [2]; [11])	% Cells in G0/G1 (LNCaP cells [2]; [11])	% Cells in G2/M (LNCaP cells [2]; [11])	% Cells in S (LNCaP cells [2]; [11])	apoptotic cells (percent of pre-G0/G1 cells) (LNCaP cells [2]; 96 hours, ATRA 1 μM)	% Caspase 3 Positive Cells (LNCaP tumors [3])	% Mitotic Cells (LNCaP tumors [3])	also measured
CCCCCCCCCCCCCC(=O)O[C@@H]1[C@@H](C)[C@@]2(O)[C@@H](C=C(CO)C[C@]3(O)C(=O)C(C)=C[C@@H]23)[C@@H]2C(C)(C)[C@]12OC(C)=O [TPA, 12-O-tetradecanoylphorbol-13-acetate]	38%	62%	33%	67%	106.1±21.0%	5.4%	69.7%	8.7%	15.9%	10.1%	77.8%	5.5%	13.0%	11.2%	66.7%	9.5%	12.3%	same low level of apoptotic cells	0.45 ± 0.03 %	0.50 ± 0.05%	percent of initial tumor size (LNCaP tumors [1]; 21 days, once a day i.p., ATRA 0.5 nmol/g): 96.4±3.1%; effect on body weight (LNCaP tumors [1]; treated for 46 days): significant decreases in body weight; Ratio of Mitotic Cells/Caspase 3 Cells (LNCaP tumors [3]): 1.13 ± 0.11; peak blood level of TPA ([4]; after a 100 ng/g i.p. injection): ~1 ng/ml and ~1.7 nM; peak blood level of TPA ([4]; after a 200 ng/g i.p. injection): about 3 ng/ml and ~4.8 nM; time of peak blood levels ([4]; i.p. 100 or 200 ng TPA per gram of body weight): 30 to 60 min; TPA in blood at 8, 12 or 24 hours ([4]; i.p. injection of 100 ng/g TPA): No TPA was detectable; TPA in blood at 8 and 24 hours ([4]; i.p. injection of 200 ng/g TPA): Measurable blood levels of TPA; half-life of TPA ([4]; i.p., NCr mice): 3 to 6 h; toxicity (LNCaP tumors [5]; 13 days, TPA 0.16 then 0.32 nmol/g i.p. once a day): excessive toxicity (decreased body weight and one death on day 14 of the study); average tumor size, % of the initial tumor size (LNCaP tumors [5]; after 13 days, TPA 0.16 nmol/g for 2 days then 0.32 nmol/g for 11 days, i.p.): about 95%; toxicity in humans [6]: only vein irritation and transient fever, and an occasional incidence of transient dyspnea; apoptotic cell morphology (LNCaP cells [7]; 3.2 nM TPA): morphologically distinct apoptotic cells; # Visible Cells (1 × 10^5) (LNCaP cells [7]; [9]): 6.9 1 × 10^5; effect on LNCaP cell growth (FIG. 2) (LNCaP cells [7]): slight inhibitory effect on cell growth; # Visible Cells (1 × 10^5) (LNCaP cells [7]; [10]): 3.7 1 × 10^5; # Visible Cells (1 × 10^5) (LNCaP cells [7]; [11]): 3.2 1 × 10^5
CC(=O)O[C@H]1C(=O)[C@@]2(C)[C@H]([C@H](OC(=O)c3ccccc3)[C@]3(O)C[C@H](OC(=O)[C@H](O)[C@@H](NC(=O)c4ccccc4)c4ccccc4)C(C)=C1C3(C)C)[C@]1(OC(C)=O)CO[C@@H]1C[C@@H]2O [Taxol, paclitaxol]	–	–	–	–	–	–	–	–	–	12.9%	73.0%	6.4%	12.8%	28.4%	49.7%	8.7%	12.4%	–	–	–	# Visible Cells (1 × 10^5) (LNCaP cells [7]; [10]): 4.6 1 × 10^5; # Visible Cells (1 × 10^5) (LNCaP cells [7]; [11]): 2.5 1 × 10^5
CC1=C(/C=C/C(C)=C/C=C/C(C)=C/C(=O)O)C(C)(C)CCC1 [ATRA, all-trans-retinoic acid]	69%	31%	83%	17%	159.2±27.0%	3.5%	73.3%	8.2%	14.8%	–	–	–	–	–	–	–	–	same low level of apoptotic cells	0.35 ± 0.03%	0.54 ± 0.04%	rate of tumor growth at later time intervals (FIG. 5) (LNCaP tumors [1]; Group B, 46 days, ATRA 0.5 nmol/g): about the same rate as tumors in the vehicle control group; # Visible Cells (1 × 10^5) (LNCaP cells [7]; [9]): 11.1 1 × 10^5; effect on LNCaP cell growth (FIG. 2) (LNCaP cells [7]): little effect on LNCaP cell growth
